Source: the NIST ThermoML archive (doi:10.1021/je500647a)
Numbers after ± are expanded uncertainties.

Experiment: mn = molality of the nth substance listed, in mol/kg
Conditions: 101 kPa, Liquid, Capillary tube (Ostwald / Ubbelohde) method

SMILES: NCC(=O)O [2-aminoacetic acid] + O
- viscosity (293.15 K, m1 = 0.025): 1.011 ± 0.0083 mPa·s
- viscosity (293.15 K, m1 = 0.05): 1.016 ± 0.0082 mPa·s
- viscosity (293.15 K, m1 = 0.1): 1.022 ± 0.0082 mPa·s
- viscosity (298.15 K, m1 = 0.025): 0.8923 ± 0.0072 mPa·s
- viscosity (298.15 K, m1 = 0.05): 0.8947 ± 0.0073 mPa·s
- viscosity (298.15 K, m1 = 0.1): 0.9011 ± 0.0075 mPa·s
- viscosity (303.15 K, m1 = 0.025): 0.7994 ± 0.0068 mPa·s
- viscosity (303.15 K, m1 = 0.05): 0.8017 ± 0.0068 mPa·s
- viscosity (303.15 K, m1 = 0.1): 0.8056 ± 0.0068 mPa·s
- viscosity (308.15 K, m1 = 0.025): 0.7201 ± 0.0064 mPa·s
- viscosity (308.15 K, m1 = 0.05): 0.7213 ± 0.0064 mPa·s
- viscosity (308.15 K, m1 = 0.1): 0.7236 ± 0.0064 mPa·s
- viscosity (313.15 K, m1 = 0.025): 0.6549 ± 0.0061 mPa·s
- viscosity (313.15 K, m1 = 0.05): 0.6563 ± 0.0061 mPa·s
- viscosity (313.15 K, m1 = 0.1): 0.6582 ± 0.0061 mPa·s

SMILES: OC[C@H]1OC(OC[C@H]2OC(O[C@]3(CO)O[C@H](CO)[C@@H](O)[C@@H]3O)[C@H](O)[C@@H](O)[C@@H]2O)[C@H](O)[C@@H](O)[C@H]1O (stereo partly drawn) [D-(+)-raffinose] + O
- viscosity (293.15 K, m1 = 0.05): 1.056 ± 0.01 mPa·s
- viscosity (293.15 K, m1 = 0.055): 1.061 ± 0.01 mPa·s
- viscosity (293.15 K, m1 = 0.06): 1.066 ± 0.0095 mPa·s
- viscosity (293.15 K, m1 = 0.065): 1.071 ± 0.0083 mPa·s
- viscosity (293.15 K, m1 = 0.07): 1.079 ± 0.0083 mPa·s
- viscosity (293.15 K, m1 = 0.075): 1.087 ± 0.0094 mPa·s
- viscosity (293.15 K, m1 = 0.08): 1.095 ± 0.012 mPa·s
- viscosity (293.15 K, m1 = 0.085): 1.101 ± 0.011 mPa·s
- viscosity (293.15 K, m1 = 0.09): 1.108 ± 0.02 mPa·s
- viscosity (293.15 K, m1 = 0.1): 1.118 ± 0.01 mPa·s
- viscosity (298.15 K, m1 = 0.05): 0.9281 ± 0.0077 mPa·s
- viscosity (298.15 K, m1 = 0.055): 0.9343 ± 0.0077 mPa·s
- viscosity (298.15 K, m1 = 0.06): 0.94 ± 0.0097 mPa·s
- viscosity (298.15 K, m1 = 0.065): 0.9448 ± 0.0097 mPa·s
- viscosity (298.15 K, m1 = 0.07): 0.9488 ± 0.0095 mPa·s
- viscosity (298.15 K, m1 = 0.075): 0.9553 ± 0.01 mPa·s
- viscosity (298.15 K, m1 = 0.08): 0.9597 ± 0.01 mPa·s
- viscosity (298.15 K, m1 = 0.085): 0.9674 ± 0.0096 mPa·s
- viscosity (298.15 K, m1 = 0.09): 0.9724 ± 0.01 mPa·s
- viscosity (298.15 K, m1 = 0.1): 0.9824 ± 0.013 mPa·s
- viscosity (303.15 K, m1 = 0.05): 0.8259 ± 0.0072 mPa·s
- viscosity (303.15 K, m1 = 0.055): 0.8302 ± 0.0074 mPa·s
- viscosity (303.15 K, m1 = 0.06): 0.8349 ± 0.0087 mPa·s
- viscosity (303.15 K, m1 = 0.065): 0.8402 ± 0.0088 mPa·s
- viscosity (303.15 K, m1 = 0.07): 0.8435 ± 0.0086 mPa·s
- viscosity (303.15 K, m1 = 0.075): 0.8485 ± 0.0086 mPa·s
- viscosity (303.15 K, m1 = 0.08): 0.8521 ± 0.0091 mPa·s
- viscosity (303.15 K, m1 = 0.085): 0.8569 ± 0.0088 mPa·s
- viscosity (303.15 K, m1 = 0.09): 0.8631 ± 0.0092 mPa·s
- viscosity (303.15 K, m1 = 0.1): 0.8719 ± 0.011 mPa·s
- viscosity (308.15 K, m1 = 0.05): 0.7393 ± 0.0068 mPa·s
- viscosity (308.15 K, m1 = 0.055): 0.7424 ± 0.007 mPa·s
- viscosity (308.15 K, m1 = 0.06): 0.7474 ± 0.0079 mPa·s
- viscosity (308.15 K, m1 = 0.065): 0.7516 ± 0.0081 mPa·s
- viscosity (308.15 K, m1 = 0.07): 0.7547 ± 0.0079 mPa·s
- viscosity (308.15 K, m1 = 0.075): 0.7585 ± 0.0079 mPa·s
- viscosity (308.15 K, m1 = 0.08): 0.7625 ± 0.008 mPa·s
- viscosity (308.15 K, m1 = 0.085): 0.7663 ± 0.0078 mPa·s
- viscosity (308.15 K, m1 = 0.09): 0.77 ± 0.008 mPa·s
- viscosity (308.15 K, m1 = 0.1): 0.7775 ± 0.01 mPa·s
- viscosity (313.15 K, m1 = 0.05): 0.6657 ± 0.0075 mPa·s
- viscosity (313.15 K, m1 = 0.055): 0.6688 ± 0.0076 mPa·s
- viscosity (313.15 K, m1 = 0.06): 0.673 ± 0.008 mPa·s
- viscosity (313.15 K, m1 = 0.065): 0.6764 ± 0.0086 mPa·s
- viscosity (313.15 K, m1 = 0.07): 0.6792 ± 0.011 mPa·s
- viscosity (313.15 K, m1 = 0.075): 0.6822 ± 0.0063 mPa·s
- viscosity (313.15 K, m1 = 0.08): 0.6857 ± 0.0074 mPa·s
- viscosity (313.15 K, m1 = 0.085): 0.6881 ± 0.0073 mPa·s
- viscosity (313.15 K, m1 = 0.09): 0.6925 ± 0.011 mPa·s
- viscosity (313.15 K, m1 = 0.1): 0.698 ± 0.0071 mPa·s

SMILES: O=C[C@H](O)[C@H](O)[C@H](O)CO [D-ribose] + O
- viscosity (293.15 K, m1 = 0.05): 1.019 ± 0.0084 mPa·s
- viscosity (293.15 K, m1 = 0.055): 1.021 ± 0.0083 mPa·s
- viscosity (293.15 K, m1 = 0.06): 1.022 ± 0.012 mPa·s
- viscosity (293.15 K, m1 = 0.065): 1.024 ± 0.016 mPa·s
- viscosity (293.15 K, m1 = 0.07): 1.026 ± 0.0082 mPa·s
- viscosity (293.15 K, m1 = 0.075): 1.027 ± 0.013 mPa·s
- viscosity (293.15 K, m1 = 0.08): 1.029 ± 0.0084 mPa·s
- viscosity (293.15 K, m1 = 0.085): 1.031 ± 0.0085 mPa·s
- viscosity (293.15 K, m1 = 0.09): 1.033 ± 0.0093 mPa·s
- viscosity (293.15 K, m1 = 0.1): 1.035 ± 0.0084 mPa·s
- viscosity (298.15 K, m1 = 0.05): 0.9032 ± 0.0076 mPa·s
- viscosity (298.15 K, m1 = 0.055): 0.9047 ± 0.0076 mPa·s
- viscosity (298.15 K, m1 = 0.06): 0.906 ± 0.0074 mPa·s
- viscosity (298.15 K, m1 = 0.065): 0.9073 ± 0.0074 mPa·s
- viscosity (298.15 K, m1 = 0.07): 0.9085 ± 0.0074 mPa·s
- viscosity (298.15 K, m1 = 0.075): 0.91 ± 0.0074 mPa·s
- viscosity (298.15 K, m1 = 0.08): 0.9114 ± 0.0075 mPa·s
- viscosity (298.15 K, m1 = 0.085): 0.9127 ± 0.0074 mPa·s
- viscosity (298.15 K, m1 = 0.09): 0.9143 ± 0.0074 mPa·s
- viscosity (298.15 K, m1 = 0.1): 0.9168 ± 0.0092 mPa·s
- viscosity (303.15 K, m1 = 0.05): 0.8071 ± 0.007 mPa·s
- viscosity (303.15 K, m1 = 0.055): 0.8082 ± 0.007 mPa·s
- viscosity (303.15 K, m1 = 0.06): 0.8092 ± 0.0069 mPa·s
- viscosity (303.15 K, m1 = 0.065): 0.8101 ± 0.0069 mPa·s
- viscosity (303.15 K, m1 = 0.07): 0.8113 ± 0.0069 mPa·s
- viscosity (303.15 K, m1 = 0.075): 0.8125 ± 0.0069 mPa·s
- viscosity (303.15 K, m1 = 0.08): 0.8135 ± 0.0069 mPa·s
- viscosity (303.15 K, m1 = 0.085): 0.8146 ± 0.0069 mPa·s
- viscosity (303.15 K, m1 = 0.09): 0.8157 ± 0.0069 mPa·s
- viscosity (303.15 K, m1 = 0.1): 0.8183 ± 0.0083 mPa·s
- viscosity (308.15 K, m1 = 0.05): 0.7261 ± 0.0065 mPa·s
- viscosity (308.15 K, m1 = 0.055): 0.727 ± 0.0065 mPa·s
- viscosity (308.15 K, m1 = 0.06): 0.7277 ± 0.0064 mPa·s
- viscosity (308.15 K, m1 = 0.065): 0.7286 ± 0.0064 mPa·s
- viscosity (308.15 K, m1 = 0.07): 0.7292 ± 0.0065 mPa·s
- viscosity (308.15 K, m1 = 0.075): 0.7302 ± 0.0065 mPa·s
- viscosity (308.15 K, m1 = 0.08): 0.7313 ± 0.0065 mPa·s
- viscosity (308.15 K, m1 = 0.085): 0.7321 ± 0.0065 mPa·s
- viscosity (308.15 K, m1 = 0.09): 0.7333 ± 0.0065 mPa·s
- viscosity (308.15 K, m1 = 0.1): 0.7353 ± 0.0073 mPa·s
- viscosity (313.15 K, m1 = 0.05): 0.657 ± 0.0061 mPa·s
- viscosity (313.15 K, m1 = 0.055): 0.6576 ± 0.0061 mPa·s
- viscosity (313.15 K, m1 = 0.06): 0.6581 ± 0.0087 mPa·s
- viscosity (313.15 K, m1 = 0.065): 0.6587 ± 0.017 mPa·s
- viscosity (313.15 K, m1 = 0.07): 0.6595 ± 0.0065 mPa·s
- viscosity (313.15 K, m1 = 0.075): 0.6601 ± 0.0093 mPa·s
- viscosity (313.15 K, m1 = 0.08): 0.6607 ± 0.0061 mPa·s
- viscosity (313.15 K, m1 = 0.085): 0.6616 ± 0.0062 mPa·s
- viscosity (313.15 K, m1 = 0.09): 0.6626 ± 0.0087 mPa·s
- viscosity (313.15 K, m1 = 0.1): 0.6642 ± 0.0062 mPa·s

SMILES: CC(C)C[C@H](N)C(=O)O [L-leucine] + O
- viscosity (293.15 K, m1 = 0.025): 1.02 ± 0.0085 mPa·s
- viscosity (293.15 K, m1 = 0.05): 1.022 ± 0.0082 mPa·s
- viscosity (293.15 K, m1 = 0.1): 1.026 ± 0.0085 mPa·s
- viscosity (298.15 K, m1 = 0.025): 0.8932 ± 0.0073 mPa·s
- viscosity (298.15 K, m1 = 0.05): 0.8936 ± 0.0073 mPa·s
- viscosity (298.15 K, m1 = 0.1): 0.8992 ± 0.0075 mPa·s
- viscosity (303.15 K, m1 = 0.025): 0.7948 ± 0.0068 mPa·s
- viscosity (303.15 K, m1 = 0.05): 0.8021 ± 0.0069 mPa·s
- viscosity (303.15 K, m1 = 0.1): 0.8011 ± 0.0068 mPa·s
- viscosity (308.15 K, m1 = 0.025): 0.7187 ± 0.0064 mPa·s
- viscosity (308.15 K, m1 = 0.05): 0.7237 ± 0.0064 mPa·s
- viscosity (308.15 K, m1 = 0.1): 0.7223 ± 0.0064 mPa·s
- viscosity (313.15 K, m1 = 0.025): 0.6481 ± 0.0061 mPa·s
- viscosity (313.15 K, m1 = 0.05): 0.6571 ± 0.0062 mPa·s
- viscosity (313.15 K, m1 = 0.1): 0.6533 ± 0.0062 mPa·s
